These are literature values, as cited in patent US20040235753A1, “Oxytocin agonists” (priority 2001, published 2004).

Like-named read-outs stand apart in the source and are kept apart here.

This data set relates to erectile response. The note with it: male rats.

In the case of `CC[C@H](C)[C@@H]1NC(=O)[C@H](Cc2ccc(O)cc2)NC(=O)[C@@H](N)CSSC[C@@H](C(=O)N2CCC[C@H]2C(=O)N[C@@H](CC(C)C)C(=O)NCC(N)=O)NC(=O)[C@H](CC(N)=O)NC(=O)[C@H](CCC(N)=O)NC1=O` [OT, oxytocin], the erectogenic activity result was “erectogenic” (i.c.v.) and “erectogenic activity” (i.v., doses required up to two orders of magnitude greater than i.c.v.).
